Test system: C57 B16J mice
Test: Tail suspension test (animal model of depression)
Assay type: in vivo
Settings: CBG dose greater than or equal to 40 mg/kg ip, tested 30 minutes after injection for six minutes
Procedure: A substantially pure extract of cannabigerol, purified from a cannabis plant extract, was tested for its ability to modify the behaviour of mice during an open field test and a tail suspension test (Steru et al., 1985, Psychopharmacology (Berl.) 85(3), 367-370). The CBG extract was compared to a known antidepressant imipramine.
The experiment used groups of 7-8 C57 B16J mice and these were tested with doses of 0, 5, 10, 20, 40, 60 and 80 mg/kg ip of CBG extract. The dose of imipramine that was used was the standard dose that is known to produce an anti-depressant effect of 30 mg/kg ip. One group of animals were administered a vehicle control.
The animals were subjected to a tail suspension test whereby a sound-attenuated chamber with a titanium bar mounted 15 cm from the floor was used. An opto-electronic sensor was mounted in a white plastic column and positioned from the mounting bar. An infra-red light transmitted from an LED onto the animal. If the animal moved, the amount of light collected by the phototransistor would increase or decrease depending on the size of the movement. […]
The mouse was suspended from a bar by the tip of its tail using adhesive tape so that the tip of their nose was 2 cm from the floor of the chamber. The total number of movements and total amount of time spent immobile were recorded.

CCCCCc1cc(O)c(C/C=C(\C)CCC=C(C)C)c(O)c1 [CBG, cannabigerol]
amount of struggling in the tail suspension test compared with vehicle control: significantly increased

Source: patent US20140039043A1, “PHARMACEUTICAL COMPOSITIONS COMPRISING CANNABIGEROL” (GW Pharma Limited, priority 2006, published 2014)
